In patent publication USRE38257E1, “Piperdine derivatives and hypotensives containing the same” (Ajinomoto Co., Inc., priority 1988, dated 2003):

Tested on: male spontaneously hypertensive rats
Experiment: Decrease in systolic blood pressure in spontaneously hypertensive rats after intravenous bolus injection, indirect (tail-cuff) method
Type: in vivo, rat
Conditions: for Decrease in systolic blood pressure (mmHg) time after administration (hour) 0.5: 0.5 hour after administration; for Decrease in systolic blood pressure (mmHg) time after administration (hour) 4: 4 hours after administration
Protocol: As test animals, four male spontaneously hypertensive rats (weight 400 to 440 g) that were sufficiently adapted for feeding and in which hypertension was confirmed were used.
Physiological saline aqueous solution containing 2.5% Nicolle and 2.5% ethanol of sample was intravenously administered by bolus injection at a dose of 1 ml per 1 kg of body weight. Systolic blood pressure after administration was measured by the indirect (tail-cuff) method.

[1] = dose 10 mg/kg i.v. bolus, hydrochloride, 10 mg/kg

SMILES	Decrease in systolic blood pressure (mmHg) time after administration (hour) 0.5 (dose 10 mg/kg i.v. bolus)	Decrease in systolic blood pressure (mmHg) time after administration (hour) 4 (dose 10 mg/kg i.v. bolus)	also measured
Cl.Cl.Nc1ccccc1CN1CCC(=C2c3ccccc3C=Cc3ccccc32)CC1 [Example 138, 1-(2-Aminobenzy)-4-(5H-Dibenzo[a,d]cyclohepten-5-ylidene)piperidine dihydrochloride]	−129 mmHg	−33 mmHg	–
CCCCCCCCCCCCCCCCCCCN1CCC(=C2c3ccccc3C=Cc3ccccc32)CC1.Cl [Example 135, 4-(5H-Dibenzo[a,d]cyclohepten-5-ylidene)-1-nondecylpiperidine hydrochloride]	−132 mmHg	−50 mmHg	–
C1=Cc2ccccc2C(=C2CCN(CCCOc3ccccc3)CC2)c2ccccc21.Cl [Example 20, 3-(4-(5H-Dibenzo[a,d]cyclohepten-5-ylidene)-1-piperidinyl)-1-phenoxypropane hydrochloride]	−37 mmHg	2 mmHg	–
COc1ccccc1CCCN1CCC(=C2c3ccccc3C=Cc3ccccc32)CC1.Cl [Example 298, 3-(4-(5H-Dibenzo[a,d]cyclohepten-5-ylidene)-1-piperidinyl)-1-(2-methoxyphenyl)propane hydrochloride]	−111 mmHg	−31 mmHg	–
C1=Cc2ccccc2C(=C2CCN(CCc3ccccc3)CC2)c2ccccc21.Cl [Example 13, 2-(4-(5H-Dibenzo[a,d]cyclohepten-5-ylidene)-1-piperidinyl)-1-phenylethane hydrochloride]	−47 mmHg	4 mmHg	–
COc1cccc(C=CCN2CCC(=C3c4ccccc4C=Cc4ccccc43)CC2)c1.Cl [Example 348, 4-(5H-Dibenzo[a,d]cyclohepten-5-ylidene)-1-(3-methoxycinnamyl)piperidine hydrochloride]	–	–	Decrease in systolic blood pressure (mmHg) time after administration (hour) 0.5 (dose 3 mg/kg i.v. bolus): −105 mmHg; Decrease in systolic blood pressure (mmHg) time after administration (hour) 4 (dose 3 mg/kg i.v. bolus): −12 mmHg
COc1cccc(C=CCN2CCC(=C3c4ccccc4C=Cc4ccccc43)CC2)c1OC.Cl [Example 344, 4-(5H-Dibenzo[a,d]cyclohepten-5-ylidene)-1-(2,3-dimethoxycinnamyl)piperidine hydrochloride]	–	–	Decrease in systolic blood pressure (mmHg) time after administration (hour) 0.5 (dose 1 mg/kg i.v. bolus): −123 mmHg; Decrease in systolic blood pressure (mmHg) time after administration (hour) 4 (dose 1 mg/kg i.v. bolus): −35 mmHg
C1=Cc2ccccc2C(=C2CCN(Cc3ccc4ccccc4c3)CC2)c2ccccc21.Cl [Example 212, 4-(5H-Dibenzo[a,d]cyclohepten-5-ylidene)-1-(2-naphthylmethyl)piperidine hydrochloride]	−155 mmHg	–	–
Cl.Cl.Nc1ccc(C=CCN2CCC(=C3c4ccccc4C=Cc4ccccc43)CC2)cc1 [Example 326, 1-(4-Aminocinnamyl)-4-(5H-Dibenzo[a,d]cyclohepten-5-ylidene)-1-piperidine dihydrochloride]	–	–	Decrease in systolic blood pressure (mmHg) time after administration (hour) 0.5 (dose 1 mg/kg i.v. bolus): −125 mmHg; Decrease in systolic blood pressure (mmHg) time after administration (hour) 4 (dose 1 mg/kg i.v. bolus): −102 mmHg
COC(=O)c1c(C)nc(CCCCN2CCC(=C3c4ccccc4C=Cc4ccccc43)CC2)c(C(=O)OC)c1C.Cl [Example 323, 2-(4-(4-(5H-Dibenzo[a,d]cyclohepten-5-ylidene)-1-piperidinyl)-1-butyl)-3,4-5,6-tetramethylpyridine-3,5-dicarboxylate hydrochloride]	−117 mmHg	−11 mmHg	–
C1=Cc2ccccc2C(=C2CCN(CCCCCCCCC3CCCCC3)CC2)c2ccccc21.Cl [Example 156, 1-Cyclohexyl-8-(4-(5H-dibenzo[a,d]cyclohepten-5-ylidene)-1-piperidinyl)octane hydrochloride]	−110 mmHg	−42 mmHg	–
COc1cc(C=CCN2CCC(=C3c4ccccc4C=Cc4ccccc43)CC2)ccc1[N+](=O)[O-].Cl [Example 387, 4-(5H-Dibenzo[a,d]cyclohepten-5-ylidene)-1-(3-methoxy-4-nitrocinnamyl)piperidine hydrochloride]	−112 mmHg	−50 mmHg	–
Cl.O=S(=O)(CCCN1CCC(=C2c3ccccc3C=Cc3ccccc32)CC1)c1ccccc1 [Example 241, 3-(4-(5H-Dibenzo[a,d]cyclohepten-5-ylidene)-1-piperidinyl)-1-propyl phenylsulphone hydrochloride]	−73 mmHg	−4 mmHg	–
COc1ccc(CCCN2CCC(=C3c4ccccc4C=Cc4ccccc43)CC2)c(OC)c1.Cl.Cl [Example 328, 3-(4-(5H-Dibenzo[a,d]cyclohepten-5-ylidene)-1-piperidinyl)-1-(2,4-dimethoxyphenyl)propane dihydrochloride]	−125 mmHg	−87 mmHg	–
COc1cc2nc(N3CCC(=C4c5ccccc5C=Cc5ccccc54)CC3)nc(N)c2cc1OC.Cl.Cl [Example 266, 2-(4-(5H-Dibenzo[a,d]cyclohepten-5-ylidene)-1-piperidinyl)-4-amino-6,7-dimethoxyquinazoline dihydrochloride]	−133 mmHg	−77 mmHg	–
Cl.N#CCCCN1CCC(=C2c3ccccc3C=Cc3ccccc32)CC1 [Example 165, 1-Cyano-3-[4-(5H-dibenzo[a,d]cyclohepten-5-ylidene)-1-piperidinyl)propane hydrochloride]	–	–	Decrease in systolic blood pressure (mmHg) time after administration (hour) 0.5 [1]: −22 mmHg; Decrease in systolic blood pressure (mmHg) time after administration (hour) 4 [1]: 12 mmHg
C1=Cc2ccccc2C(=C2CCN(CCCCC3CCCCC3)CC2)c2ccccc21.Cl [Example 283, 4-(4-(4-(5H-Dibenzo[a,d]cyclohepten-5-ylidene)-1-piperidinyl)-1-butyl)cyclohexane hydrochloride]	–	–	Decrease in systolic blood pressure (mmHg) time after administration (hour) 0.5 [1]: −112 mmHg; Decrease in systolic blood pressure (mmHg) time after administration (hour) 4 [1]: 4 mmHg
Cl.O=C(CCCN1CCC(=C2c3ccccc3C=Cc3ccccc32)CC1)c1ccc(F)cc1 [Example 125, 4-(4-(5H-Dibenzo[a,d]cyclohepten-5-ylidene)-1-piperidinyl)-4′-fluorobutyrophenone hydrochloride]	−93 mmHg	−14 mmHg	–
CCOC(=O)C(CCC1CCCCC1)CN1CCC(=C2c3ccccc3C=Cc3ccccc32)CC1.Cl (stereo not drawn) [Example 262]	−16 mmHg	−3 mmHg	–
Cl.Fc1cccc(CN2CCC(=C3c4ccccc4C=Cc4ccccc43)CC2)c1 [Example 112, 4-(5H-Dibenzo[a,d]cyclohepten-5-ylidene)-1-(3-fluorobenzyl)piperidine hydrochloride]	−16 mmHg	0 mmHg	–
Cl.N#Cc1ccc(CN2CCC(=C3c4ccccc4C=Cc4ccccc43)CC2)cc1 [Example 160, 1-(4-Cyanobenzyl)-4-(5H-dibenzo[a,d]cyclohepten-5-ylidene)piperidine hydrochloride]	−3 mmHg	−10 mmHg	–
C1=Cc2ccccc2C(=C2CCN(CC3CCCCC3)CC2)c2ccccc21.Cl [Example 7, 1-Cyclohexylmethyl-4-(5H-dibenzo[a,d]cyclohepten-5-ylidene)piperidine hydrochloride]	−57 mmHg	−15 mmHg	–
Cl.O=C(NCCN1CCCCC1=C1c2ccccc2C=Cc2ccccc21)c1cccc([N+](=O)[O-])c1 [Example 290, N-(2-(5H-Dibenzo[a,d]cyclohepten-5-ylidene)-1-piperidinyl)ethyl-3-nitrobenzamide hydrochloride]	–	–	Decrease in systolic blood pressure (mmHg) time after administration (hour) 0.5 (dose 3 mg/kg i.v. bolus): −15 mmHg; Decrease in systolic blood pressure (mmHg) time after administration (hour) 4 (dose 3 mg/kg i.v. bolus): 15 mmHg
CCC(=O)Nc1ccc(C=CCN2CCC(=C3c4ccccc4C=Cc4ccccc43)CC2)cc1.Cl [Example 370, 4-(5H-Dibenzo[a,d]cyclohepten-5-ylidene)-1-(4-propanoylaminocinnamyl)piperidine hydrochloride]	−99 mmHg	−69 mmHg	–
Cl.[O-][S+](CCCN1CCC(=C2c3ccccc3C=Cc3ccccc32)CC1)c1ccccc1 (stereo not drawn) [Example 239, 3-(4-(5H-Dibenzo[a,d]cyclohepten-5-ylidene)-1-piperidinyl)-1-propyl phenylsulphoxide hydrochloride]	−68 mmHg	−15 mmHg	–
CCOc1ccc(C(=O)CCCN2CCC(=C3c4ccccc4C=Cc4ccccc43)CC2)cc1OCC.Cl [Example 194, 4-(4-(5H-Dibenzo[a,d]cyclohepten-5-ylidene)-1-piperidinyl)-3′,4′-diethoxybutyrophenone hydrochloride]	−59 mmHg	−17 mmHg	–
